Reference: US20240293380A1, “PROTEASE INHIBITORS AND METHODS OF USE” (priority 2021, published 2024)

System: SARS-CoV-2
Assay: microbe, parasite or virus in culture
Assay type: cell-based, SARS-Related Coronavirus 2, Isolate USA-WA1/2020
Conditions: Severe acute respiratory syndrome coronavirus 2, Vero C1008

Compound | EC50 [nM]
O=C(Cc1cncc2ccccc12)N(Cc1cc(F)cc(Cl)c1)c1ccc(-c2c[nH]cn2)cc1 [Compound 12, N-[(3-chloro-5-fluoro-phenyl)methyl]-N-[4-(1H-imidazol-4-yl)phenyl]-2-(4-isoquinolyl)acetamide] | 1140

Biological target: SARS-CoV-2 3CLpro (Severe acute respiratory syndrome coronavirus 2 (2019-nCoV) (SARS-CoV-2), UniProt P0DTD1)
Assay: not given
Assay type: biochemical
Conditions: not given

Compound | IC50 [nM]
O=C(Cc1nnc2ccccn12)N(Cc1cccc(F)c1F)c1ccc(-c2c[nH]cn2)cc1 [Compound 24] | 1300
O=C(Cc1cncc(C2CC2)c1)N(Cc1cc(F)cc(Cl)c1)c1ccc(-c2c[nH]cn2)cc1 [Compound 71] | 115
CC(C)(C)NC(=O)C(c1cc(F)cc(F)c1)N(C(=O)Cc1cncc2ccccc12)c1ccc(-c2c[nH]cn2)cc1 (centres unmarked) [Compound 64] | 231
O=C(Cc1cncc2ccccc12)N(Cc1cc(F)ccc1F)c1ccc(-c2c[nH]cn2)cc1 [Compound 23] | 159
O=C1CN(c2ccc(N(Cc3cc(F)cc(F)c3)C(=O)Cc3cncc4ccccc34)cc2)CCN1 [Compound 36] | 370
O=C(Cc1cncc(F)c1)N(Cc1cc(F)cc(Cl)c1)c1ccc(-c2c[nH]cn2)cc1 [Compound 69] | 220
O=C(Cc1cncc2ccccc12)N(Cc1cc(F)cc(F)c1)c1ccc(C2CNC2)cc1 [Compound 62] | 69
O=C(Cc1cncc(C2CC2)c1)N(Cc1cc(F)cc(Cl)c1)c1ccc(C2CNC2)cc1 [Compound 79] | 112
Cc1ccncc1CC(=O)N(Cc1cc(F)cc(Cl)c1)c1ccc(-c2c[nH]cn2)cc1 [Compound 77] | 136
O=C(Cc1cccnc1)N(Cc1cccc(Cl)c1)c1ccc(-c2c[nH]cn2)cc1 [Compound 44] | 414
COc1cc(F)cc(CN(C(=O)Cc2cncc3ccccc23)c2ccc(-c3c[nH]cn3)cc2)c1 [Compound 54] | 90
O=C(Cc1nnc2ccccn12)N(Cc1cccc(F)c1)c1ccc(-c2c[nH]cn2)cc1 [Compound 47] | 621
O=C(Cc1cncc2ccccc12)N(Cc1cc(F)cc(F)c1)c1ccc(-c2c[nH]cn2)cc1 [Compound 28] | 53
O=C(Cc1cncc2ccccc12)N(Cc1cccc(F)c1F)c1ccc(-c2c[nH]cn2)cc1 [Compound 25] | 184
O=C(Cc1cncc2ccccc12)N(Cc1cncc(F)c1)c1ccc(C2CNC2)cc1 [Compound 60] | 193
O=C(Cc1cncc(C2CC2)c1)N(Cc1cc(F)cc(F)c1)c1ccc(-c2c[nH]cn2)cc1 [Compound 67] | 161
O=C1CNCCN1c1ccc(N(Cc2cc(F)cc(F)c2)C(=O)Cc2cncc3ccccc23)cc1 [Compound 35] | 481

Compound | IC50 [nM]
O=C(Cc1cncc2ccccc12)N(Cc1cc(F)cc(Cl)c1)c1ccc(-c2c[nH]cn2)cc1 [Compound 12, N-[(3-chloro-5-fluoro-phenyl)methyl]-N-[4-(1H-imidazol-4-yl)phenyl]-2-(4-isoquinolyl)acetamide] | 15
O=C(Cc1cncc2ccccc12)N(Cc1cncc(C(F)(F)F)c1)c1ccc(-c2c[nH]cn2)cc1 [Compound 39] | 82
O=C(Cc1cncc2ccccc12)N(Cc1cccc(Cl)c1F)c1ccc(-c2c[nH]cn2)cc1 [Compound 16] | 370
COc1ccc(Cl)cc1CN(C(=O)Cc1cncc2ccccc12)c1ccc(-c2c[nH]cn2)cc1 [Compound 18] | 191
O=C(Cc1nnc2ccccn12)N(Cc1cc(F)cc(F)c1)c1ccc(-c2c[nH]cn2)cc1 [Compound 27] | 209
O=C(Cc1nnc2ccc(F)cn12)N(Cc1cc(F)cc(Cl)c1)c1ccc(-c2c[nH]cn2)cc1 [Compound 10, N-[(3-chloro-5-fluoro-phenyl)methyl]-2-(6-fluoro-[1,2,4]triazolo[4,3-a]pyridin-3-yl)-N-[4-(1H-imidazol-4-yl)phenyl]acetamide] | 77
C[C@H](c1cc(F)cc(Cl)c1)N(C(=O)Cc1cncc2ccccc12)c1ccc(-c2c[nH]cn2)cc1 [Compound 14] | 76
O=C(Cc1cncc2ccccc12)N(Cc1cc(F)cc(F)c1)c1ccc(C2=CCNC2)cc1 [Compound 56] | 139
CC(C)CN(C(=O)Cc1nnc2ccccn12)c1ccc(-c2c[nH]cn2)cc1 [Compound 46] | 8100
O=C(Cc1cccnn1)N(Cc1cc(F)cc(Cl)c1)c1ccc(-c2c[nH]cn2)cc1 [Compound 52] | 389
O=C(Cc1cccnn1)N(Cc1cc(F)cc(F)c1)c1ccc(-c2c[nH]cn2)cc1 [Compound 31] | 506
CC(C)(C)CN(C(=O)Cc1cncc2ccccc12)c1ccc(-c2c[nH]cn2)cc1 [Compound 45] | 356
O=C(Cc1cncc2ccccc12)N(Cc1cncc(F)c1)c1ccc(C2=CCNC2)cc1 [Compound 68] | 608
O=C(Cc1cncc(Br)c1)N(Cc1cc(F)cc(F)c1)c1ccc(-c2c[nH]cn2)cc1 [Compound 65] | 187
NC(=O)c1ccc(N(Cc2cc(F)cc(F)c2)C(=O)Cc2cncc3ccccc23)cc1 [Compound 51] | 100
O=C(Cc1cncc(F)c1)N(Cc1cncc(F)c1)c1ccc(C2CNC2)cc1 [Compound 83] | 5220
N#Cc1ccc(N(Cc2cc(F)cc(F)c2)C(=O)Cc2cncc3ccccc23)cc1 [Compound 38] | 1250
